Experiment [1] concerns the target T1, recombinant active human PAI-1 (Homo sapiens (Human), UniProt P05121). The experiment is described as follows: Fluorometric IC50 plate assay (PAI-1 inhibition of uPA, Z-Gly-Gly-Arg-AMC). It counts as biochemical. As to conditions: in vitro, PAI-1 1 nM, uPA 2.5 nM, pH 7.8, 10% DMSO; ND = not detected, e.g. no inhibition.
Experiment [2] concerns the target T1, recombinant active human PAI-1. The experiment is described as follows: pH dependence of PAI-1 inhibition, fluorogenic uPA (or tPA) assay. Format: biochemical. Particulars: for PAI-1 inhibitory efficacy (in words): pH 7.5 (FIG. 8), additional experiments; for effect of pH on PAI-1 inhibition (in words): pH 6.5 to 8.5.
Experiment [3] addresses T2, PAI-1 (Homo sapiens (Human), UniProt P05121). The experiment is described as follows: Surface plasmon resonance, loss of PAI-1 binding to immobilized anhydrotrypsin. As to conditions: PAI-1 2 nM preincubated with compound, SPR; read-out: Apparent KD (nM) ± SEM. In general terms: Surface plasmon resonance follows binding to a sensor surface in real time, without labels.
A further experiment concerns the target active mouse PAI-1 (Mus musculus (Mouse), UniProt P22777). The experiment is described as follows: Ex vivo plasma Luminex assay, mouse plasma spiked with active mouse PAI-1. Particulars: mouse plasma spiked with active mouse PAI-1 3-4 ng/mL. It counts as biochemical.
For experiment [4], the target named is T1, recombinant active human PAI-1. The experiment is described as follows: Chromogenic uPA assay of PAI-1 inhibition (pGlu-Gly-Arg pNA). Format: biochemical.
Experiment [5] addresses T2, PAI-1. The experiment is described as follows: SDS-PAGE analysis of PAI-1:plasminogen activator complex formation. Format: biochemical. As to conditions: tannic acid 0-100 μM, uPA or tPA.
Experiment [6] concerns the target recombinant active human PAI-1 preincubated with vitronectin (Homo sapiens (Human), UniProt P05121). The experiment is described as follows: Inhibition of vitronectin-bound PAI-1 by tannic acid, chromogenic uPA assay. Particulars: 5-fold molar excess of vitronectin. Format: biochemical.
For experiment [7], the target named is T1, recombinant active human PAI-1. The experiment is described as follows: β-trypsin screening assay for PAI-1 inhibitors.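 Further: fluorogenic readout with PAI-1 and β-trypsin at 10:1 molar ratio, untreated PAI-1 wells set as 100% PAI-1 activity and β-trypsin alone as 0%.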 It counts as biochemical. Particulars: 10 μM compound; hit = more than 3 standard deviations above control.
The target is the same in experiment [8]. The experiment is described as follows: High throughput uPA chromogenic screen for PAI-1 inactivators. As to conditions: 10 μM compound; hit = more than 3 standard deviations above control. It counts as biochemical.

Where a SMILES comes first, the peptide text is derived from it. [ ]: non-standard residue; d: D form. The star is where a group is joined. Tyr(3-NO2) = N[C@@H](Cc1ccc(O)c([N+](=O)[O-])c1)C(=O)O; Boc = CC(C)(C)OC(=O)*

By IC50 is commonly meant the concentration at which inhibition is half-maximal.

T2 sequence (P05121 24-402): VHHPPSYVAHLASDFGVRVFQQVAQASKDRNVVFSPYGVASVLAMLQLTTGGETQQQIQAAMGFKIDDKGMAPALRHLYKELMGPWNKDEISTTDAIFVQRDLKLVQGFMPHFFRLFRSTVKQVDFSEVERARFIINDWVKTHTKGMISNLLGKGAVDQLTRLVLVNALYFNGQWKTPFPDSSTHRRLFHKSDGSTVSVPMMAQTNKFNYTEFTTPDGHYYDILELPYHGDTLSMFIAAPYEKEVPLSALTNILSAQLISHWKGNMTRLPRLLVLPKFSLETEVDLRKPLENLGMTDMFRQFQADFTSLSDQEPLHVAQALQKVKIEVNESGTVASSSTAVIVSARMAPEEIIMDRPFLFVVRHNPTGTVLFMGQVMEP
T1 sequence (P05121 24-402): as above
active mouse PAI-1, sequence (P22777 23-402): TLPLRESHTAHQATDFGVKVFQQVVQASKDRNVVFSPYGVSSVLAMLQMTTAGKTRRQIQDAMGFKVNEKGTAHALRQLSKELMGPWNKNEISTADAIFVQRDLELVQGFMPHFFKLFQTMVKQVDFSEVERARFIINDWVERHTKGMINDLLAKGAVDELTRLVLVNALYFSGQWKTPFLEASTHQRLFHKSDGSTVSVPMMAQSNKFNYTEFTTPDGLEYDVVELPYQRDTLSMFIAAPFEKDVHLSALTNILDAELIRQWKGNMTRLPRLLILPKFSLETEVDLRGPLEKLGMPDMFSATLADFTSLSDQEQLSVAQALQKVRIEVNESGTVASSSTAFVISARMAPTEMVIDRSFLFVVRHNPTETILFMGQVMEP
recombinant active human PAI-1 preincubated with vitronectin, sequence (P05121 24-402): as the sequence (P05121 24-402) above
recombinant active human PAI-1 preincubated with vitronectin, sequence (P04004 20-478 partner): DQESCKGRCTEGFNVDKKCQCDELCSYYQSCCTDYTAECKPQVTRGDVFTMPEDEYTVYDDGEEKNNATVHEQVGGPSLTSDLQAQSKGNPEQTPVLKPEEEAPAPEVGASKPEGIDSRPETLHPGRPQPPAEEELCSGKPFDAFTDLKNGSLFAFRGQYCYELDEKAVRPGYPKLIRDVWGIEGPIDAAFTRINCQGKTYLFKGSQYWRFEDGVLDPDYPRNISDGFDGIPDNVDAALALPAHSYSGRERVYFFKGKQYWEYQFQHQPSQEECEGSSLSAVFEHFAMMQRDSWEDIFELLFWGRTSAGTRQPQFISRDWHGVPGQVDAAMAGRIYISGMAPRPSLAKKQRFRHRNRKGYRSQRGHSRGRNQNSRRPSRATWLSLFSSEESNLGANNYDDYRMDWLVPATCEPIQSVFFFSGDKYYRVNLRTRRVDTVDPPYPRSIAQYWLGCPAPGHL

On to `O=C(OCCOCCOC(=O)c1cc(O)c(O)c(O)c1)c1cc(O)c(O)c(O)c1` [CDE-009], for which the IC50 in [1] is 49.3 µM. Moreover, the “PAI-1 inhibitory efficacy (in words)” value in experiment [2] is given as “effective PAI-1 inhibitors”.
In the case of `O=C(OCCOCCOCCOCCOC(=O)c1cc(O)c(O)c(O)c1)c1cc(O)c(O)c(O)c1` [CDE-011], in experiment [1], the 50% inhibitory concentration (IC50) amounted to 338 µM. The “PAI-1 inhibitory efficacy (in words)” value in [2] was “effective PAI-1 inhibitors”.
With `O=C(OCCOCCOCCOC(=O)c1cc(O)c(O)c(O)c1)c1cc(O)c(O)c(O)c1` [CDE-012], the IC50 in experiment [1] worked out at 196 µM. In addition, in experiment [2], the “PAI-1 inhibitory efficacy (in words)” value is “effective PAI-1 inhibitors”.
Turning to `O=C(OCCCOC(=O)c1cc(O)c(O)c(O)c1)c1cc(O)c(O)c(O)c1` [CDE-013], in [1], the half-inhibitory concentration (IC50) is 7.85 µM. In addition, in experiment [2], the “PAI-1 inhibitory efficacy (in words)” value is reported as “effective PAI-1 inhibitors”.
Consider `O=S(=O)(NCCNS(=O)(=O)c1ccc(O)c(O)c1)c1ccc(O)c(O)c1` [CDE-021], for which the IC50 in [1] stood at 450 µM. Moreover, in experiment [2], the “effect of pH on PAI-1 inhibition (in words)” value was “increased with increasing pH” and the “PAI-1 inhibitory efficacy (in words)” value is on record as “effective inhibitors of PAI-1”.
Take `CC(C)(C)OC(=O)N[C@@H](Cc1ccc(O)c([N+](=O)[O-])c1)C(=O)O` [CDE-028]: the concentration for half-maximal inhibition (IC50) in [1] came to 386 µM. For the same compound, in experiment [2], the “effect of pH on PAI-1 inhibition (in words)” value is reported as “increased with increasing pH” and the “PAI-1 inhibitory efficacy (in words)” value is on record as “effective inhibitors of PAI-1”.
As to `COc1ccc(S(=O)(=O)NCCNS(=O)(=O)c2ccc(OC)c(OC)c2)cc1OC` [CDE-029], in [2], the “effect of pH on PAI-1 inhibition (in words)” value is on record as “increased with increasing pH” and the “PAI-1 inhibitory efficacy (in words)” value was “effective inhibitors of PAI-1”.
The like results for `CCN(CCN(CC)S(=O)(=O)c1ccc(OC)c(OC)c1)S(=O)(=O)c1ccc(OC)c(OC)c1` [CDE-030] were, in that order, “increased with increasing pH” and “effective inhibitors of PAI-1”.
As for `O=C(O[C@H]1CCCC[C@H]1OC(=O)c1cc(O)c(O)c(O)c1)c1cc(O)c(O)c(O)c1` [CDE-031], the half-maximal inhibitory concentration (IC50) in experiment [1] amounted to 0.28 µM. Also, the Kd at PAI-1 [3] stood at 31 ± 2 nM. Besides, in [2], the “effect of pH on PAI-1 inhibition (in words)” value is recorded as “increased with increasing pH” and the “PAI-1 inhibitory efficacy (in words)” value is “effective inhibitors of PAI-1”.
As for `CCN(CCN(CC)S(=O)(=O)c1ccc(O)c(O)c1)S(=O)(=O)c1ccc(O)c(O)c1` [CDE-032], the concentration for half-maximal inhibition (IC50) in experiment [1] worked out at 10.2 µM. For the same compound, in experiment [2], the “effect of pH on PAI-1 inhibition (in words)” value is “increased with increasing pH” and the “PAI-1 inhibitory efficacy (in words)” value is listed as “effective inhibitors of PAI-1”.
Take `CCOC(=O)[C@H](Cc1ccc(O)c([N+](=O)[O-])c1)NC(=O)[C@H](Cc1ccc(O)c([N+](=O)[O-])c1)NC(=O)OC(C)(C)C` [CDE-033] (Boc-[Tyr(3-NO2)]-[Tyr(3-NO2)]-OEt): the half-maximal inhibitory concentration (IC50) in experiment [1] was 246 µM.
`O=C(O[C@@H]1CCCC[C@H]1OC(=O)c1cc(O)c(O)c(O)c1)c1cc(O)c(O)c(O)c1` [CDE-034]: the IC50 in experiment [1] was 1.17 µM. In addition, the Kd at PAI-1 [3] is 67 ± 3 nM.
For `CC(C)(C)OC(=O)N[C@@H](Cc1ccc(O)c([N+](=O)[O-])c1)C(=O)N[C@@H](Cc1ccc(O)c([N+](=O)[O-])c1)C(=O)O` [CDE-035] (Boc-[Tyr(3-NO2)]-[Tyr(3-NO2)]-OH), the IC50 in experiment [1] was determined as 146 µM.
Regarding `O=C(OCCOC(=O)c1cccc(OC(=O)c2cc(O)c(O)c(O)c2)c1)c1cccc(OC(=O)c2cc(O)c(O)c(O)c2)c1` [CDE-041], the half-maximal inhibitory concentration (IC50) in experiment [1] amounted to 47.9 µM.
On the same count and under the same terms, next, `O=C(NCCNC(=O)c1cc(O)c(O)c(O)c1)c1cc(O)c(O)c(O)c1` [CDE-044]: 900 µM; `O=C(OCCOC(=O)c1ccc(O)cc1O)c1ccc(O)cc1O` [CDE-051]: 28.7 µM; `O=C(c1cc(O)c(O)c(O)c1)N1CCN(C(=O)c2cc(O)c(O)c(O)c2)CC1` [CDE-055]: 27.5 µM.
Regarding `O=C(Oc1ccccc1OC(=O)c1cc(O)c(O)c(O)c1)c1cc(O)c(O)c(O)c1` [CDE-056], in experiment [1], the IC50 was 2.96 µM. For the same compound, the Kd at PAI-1 [3] was determined as 51 ± 6 nM.
For the compound `O=C(O[C@@H]1CCC[C@H](OC(=O)c2cc(O)c(O)c(O)c2)C1)c1cc(O)c(O)c(O)c1` [CDE-057], the IC50 in experiment [1] came to 195 µM.
Turning to `O=S(=O)(NNS(=O)(=O)c1ccc(O)c(O)c1)c1ccc(O)c(O)c1` [CDE-059], the figures for the IC50 (in experiment [1]; on active mouse PAI-1) were 0.09 µM and 973 µM, respectively.
`O=C(NCCNC(=O)c1ccc(O)c([N+](=O)[O-])c1)c1ccc(O)c([N+](=O)[O-])c1` [CDE-060]: the IC50 in experiment [1] turned out to be 236 µM.
On the same count and under the same terms, next, `O=C(O[C@H]1CC[C@@H](OC(=O)c2cc(O)c(O)c(O)c2)CC1)c1cc(O)c(O)c(O)c1` [CDE-061]: 0.05 µM; `O=C(O[C@H]1CC[C@H](OC(=O)c2cc(O)c(O)c(O)c2)CC1)c1cc(O)c(O)c(O)c1` [CDE-062]: 332 µM.
Same read-out and setting: the same measure for `COc1cc(C(=O)N(C)CCN(C)C(=O)c2cc(OC)c(O)c(OC)c2)cc(OC)c1O` [CDE-064]: 2200 µM.
In the case of `COc1cc(C(=O)N2CCN(C(=O)c3cc(OC)c(O)c(OC)c3)CC2)cc(OC)c1O` [CDE-065], in [1], the IC50 is 423 µM.
The same measure, in the same setting: the same measure for `CC(C)(COC(=O)c1cc(O)c(O)c(O)c1)COC(=O)c1cc(O)c(O)c(O)c1` [CDE-067]: 48.3 µM; for `CN(N(C)S(=O)(=O)c1ccc(O)c(O)c1)S(=O)(=O)c1ccc(O)c(O)c1` [CDE-068]: 32.7 µM.
On to `COc1cc(C(=O)OCCOC(=O)c2cc(OC)c(O)c(OC)c2)cc(OC)c1O` [CDE-069], for which the half-maximal inhibitory concentration (IC50) in [1] was 562 µM.
Regarding `O=C(NCCCNC(=O)c1cc(O)c(O)c(O)c1)c1cc(O)c(O)c(O)c1` [CDE-070], the IC50 in experiment [1] amounted to 269 µM.
With `O=S(=O)(NNS(=O)(=O)c1ccc(O)cc1)c1ccc(O)cc1` [CDE-072], the IC50 in [1] was found to be 104 µM.
The same measure, in the same setting: the same measure for `O=S(=O)(c1ccc(O)c(O)c1)N1CCCCN1S(=O)(=O)c1ccc(O)c(O)c1` [CDE-074]: 1.71 µM; for `CC(C)(C)OC(=O)NCC(COC(=O)c1cc(O)c(O)c(O)c1)OC(=O)c1cc(O)c(O)c(O)c1` (stereo not shown) [CDE-075]: 0.07 µM.
`O=C(OCC(COC(=O)c1cc(O)c(O)c(O)c1)OC(=O)c1cc(O)c(O)c(O)c1)c1cc(O)c(O)c(O)c1` [CDE-082]: the Kd on PAI-1 [3] came to 5.3 ± 0.2 nM.
On to `O=C(OC[C@H]1O[C@@H](OC(=O)c2cc(O)c(O)c(OC(=O)c3cc(O)c(O)c(O)c3)c2)[C@H](OC(=O)c2cc(O)c(O)c(OC(=O)c3cc(O)c(O)c(O)c3)c2)[C@@H](OC(=O)c2cc(O)c(O)c(OC(=O)c3cc(O)c(O)c(O)c3)c2)[C@@H]1OC(=O)c1cc(O)c(O)c(OC(=O)c2cc(O)c(O)c(O)c2)c1)c1cc(O)c(O)c(OC(=O)c2cc(O)c(O)c(O)c2)c1` [Tannic acid, tannic acid], for which the half-maximal inhibitory concentration (IC50) at active mouse PAI-1 turned out to be 9.68 µM; in experiment [2] (pH 6.5) it was 7.36 µM; in [2] (pH 7.5), 7.15 µM; in [2] (pH 8.5) it was 0.0091 µM; in [4] (some experiments (not shown in FIG. 2)), 2.5 µM. The “effect of pH on PAI-1 inhibition (in words)” value in experiment [2] is “improved by increasing pH”. Also, on PAI-1 [5], the “effect on PAI-1:PA complex formation (in words)” value is “converts PAI-1 to a substrate for PAs”. Moreover, in [6], the “inhibition of vitronectin-bound PAI-1 (in words)” value is “inhibited PAI-1 activity even when bound to vitronectin”. Moreover, the “screening hit: restoration of β-trypsin activity” value in experiment [7] was “demonstrate PAI-1 inhibitor activity”. Besides, the “screening hit: restoration of uPA activity” value in experiment [8] is listed as “positive hits”.
As to `O=C(Oc1cc(O)cc2c1C[C@@H](OC(=O)c1cc(O)c(O)c(O)c1)[C@@H](c1cc(O)c(O)c(O)c1)O2)c1cc(O)c(O)c(O)c1` [epigallocatechin 3,5 digallate], the “screening hit: restoration of uPA activity” value in experiment [8] is recorded as “positive hits”.
In the case of `O=C(O)c1cc(O)c(O)c(O)c1` [gallic acid], the “effect of pH on PAI-1 inhibition (in words)” value in experiment [2] is “increased with increasing pH to 8.5”. Moreover, the “fold less active toward PAI-1 than tannic acid” value in experiment [4] (FIG. 2) is given as “approximately 1000 fold”; in experiment [4] (other data (not shown)), “up to 4000 fold”.
On to `Oc1c(Cl)cc(Cl)c(Cl)c1Cc1c(O)c(Cl)cc(Cl)c1Cl` [hexachlorophene], for which the “effect of pH on PAI-1 inhibition (in words)” value in [2] is recorded as “did not improve at pH 8.5 compared to pH 7.5”. In addition, the “screening hit: restoration of β-trypsin activity” value in experiment [7] is reported as “demonstrate PAI-1 inhibitor activity”.

Source of the values: patent US9120744B2, “Plasminogen activator inhibitor-1 inhibitors and methods of use thereof to modulate lipid metabolism” (THE REGENTS OF THE UNIVERSITY OF MICHIGAN, priority 2007, dated 2015).
